Results published in PubChem BioAssay AID588439 (The Scripps Research Institute Molecular Screening Center, 2011).
Active and inactive are the calls of the source.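 The calls were made as follows: active = EC50 at or below 10 µM; inactive = EC50 above 10 µM.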

Target: Insulin-degrading enzyme (Homo sapiens) (UniProt P14735)
Assay: cellular IDE activation of Abeta substrate cleavage – fluorescence polarization, HEK cells, dose response (AID 588439)
Settings: endogenous IDE, FAbeta-B cleavage fluorescence polarization

Chain of Insulin-degrading enzyme (Homo sapiens) (P14735 whole entry, looked up): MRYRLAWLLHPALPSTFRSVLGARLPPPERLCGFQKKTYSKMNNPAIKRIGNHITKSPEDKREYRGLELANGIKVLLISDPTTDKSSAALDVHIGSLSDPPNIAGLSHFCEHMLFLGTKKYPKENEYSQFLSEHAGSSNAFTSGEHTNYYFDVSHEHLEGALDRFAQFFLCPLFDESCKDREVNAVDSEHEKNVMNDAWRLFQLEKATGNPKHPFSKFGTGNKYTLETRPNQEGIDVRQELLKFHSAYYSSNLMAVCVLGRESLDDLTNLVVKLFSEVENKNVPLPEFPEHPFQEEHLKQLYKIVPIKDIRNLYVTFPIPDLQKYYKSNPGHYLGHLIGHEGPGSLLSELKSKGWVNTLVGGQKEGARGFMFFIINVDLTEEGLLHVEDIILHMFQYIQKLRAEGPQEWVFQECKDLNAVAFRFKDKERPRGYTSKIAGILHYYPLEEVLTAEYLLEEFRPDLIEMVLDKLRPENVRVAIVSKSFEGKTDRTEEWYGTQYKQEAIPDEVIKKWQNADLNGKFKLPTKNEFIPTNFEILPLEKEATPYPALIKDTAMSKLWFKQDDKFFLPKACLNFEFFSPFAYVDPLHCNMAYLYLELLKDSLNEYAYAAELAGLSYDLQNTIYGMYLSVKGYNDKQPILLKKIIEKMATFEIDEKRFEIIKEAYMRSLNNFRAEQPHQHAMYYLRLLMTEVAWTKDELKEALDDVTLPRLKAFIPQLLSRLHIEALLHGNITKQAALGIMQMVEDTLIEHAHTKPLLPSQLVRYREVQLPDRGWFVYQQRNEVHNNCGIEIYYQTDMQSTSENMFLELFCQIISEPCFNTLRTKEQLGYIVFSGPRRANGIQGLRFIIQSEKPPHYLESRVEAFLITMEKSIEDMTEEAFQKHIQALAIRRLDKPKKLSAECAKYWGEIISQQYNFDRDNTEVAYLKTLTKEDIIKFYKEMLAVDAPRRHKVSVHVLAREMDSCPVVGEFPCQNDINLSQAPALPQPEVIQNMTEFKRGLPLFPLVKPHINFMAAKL

EC50	SMILES
> 54.7 µM (inactive)	C#CCOCCOCCOCCNc1nc(N2CCN(C(=O)CCCCCCCCCCNC(=O)[C@H](CCCCN)n3cc(CCO)nn3)CC2)nc(N2CCN(C(=O)CCCCCCCCCCNC(=O)[C@H](CCCN=C(N)N)n3cc(C[C@@H](C)CC)nn3)CC2)n1
> 54.7 µM (inactive)	C#CCOCCOCCOCCNc1nc(N2CCN(C(=O)CCCCCCCCCCNC(=O)Cn3cc(CCCCCN)nn3)CC2)nc(N2CCN(C(=O)CCCCCCCCCCNC(=O)Cn3cc(C[C@@H](C)O)nn3)CC2)n1
> 54.7 µM (inactive)	C#CCOCCOCCOCCNc1nc(N2CCN(C(=O)CCCCCCCCCCNC(=O)Cn3cc(C[C@@H](C)O)nn3)CC2)nc(N2CCN(C(=O)CCCCCCCCCCNC(=O)[C@H](CCCN=C(N)N)n3cc(C[C@@H](C)CC)nn3)CC2)n1
> 54.7 µM (inactive)	C#CCOCCOCCOCCNc1nc(N2CCN(C(=O)CCCCCCCCCCNC(=O)[C@H](CO)n3cc(CCCSC)nn3)CC2)nc(N2CCN(C(=O)CCCCCCCCCCNC(=O)[C@H](CCCCN)n3cc(CCO)nn3)CC2)n1
